Test results taken from ChEMBL document CHEMBL1132084, “Thrombin inhibitors based on a propargylglycine template” (Bioorg Med Chem Lett, 1999).
Values belong to the compound of their own block, whether it stands above or below them.

How the values were obtained:
Prothrombin = Prothrombin (Homo sapiens, UniProt P00734); test: Inhibition of human thrombin
Plasminogen = Plasminogen (Homo sapiens, UniProt P00747); test: Inhibitory activity against plasmin
Coagulation factor X = Coagulation factor X (Homo sapiens, UniProt P00742); test: Inhibitory activity against factor Xa
Sequence of Coagulation factor X (P00742 41-179 limits assumed): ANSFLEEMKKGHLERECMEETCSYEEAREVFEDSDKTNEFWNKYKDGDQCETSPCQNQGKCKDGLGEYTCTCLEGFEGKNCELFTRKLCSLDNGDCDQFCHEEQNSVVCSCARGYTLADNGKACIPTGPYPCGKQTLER
Sequence of Coagulation factor X (P00742 235-488 limits assumed): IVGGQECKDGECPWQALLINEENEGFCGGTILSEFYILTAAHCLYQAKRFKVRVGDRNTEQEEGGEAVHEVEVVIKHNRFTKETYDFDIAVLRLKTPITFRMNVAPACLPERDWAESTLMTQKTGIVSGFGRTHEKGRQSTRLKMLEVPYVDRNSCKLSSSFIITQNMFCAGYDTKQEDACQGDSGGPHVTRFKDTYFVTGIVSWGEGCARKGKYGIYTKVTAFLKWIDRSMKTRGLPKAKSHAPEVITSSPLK

[1] = biological target: Tissue-type plasminogen activator (Homo sapiens, UniProt P00750); test: Inhibitory activity against tissue type plasminogen activator (t-PA)
Sequence of Tissue-type plasminogen activator (P00750 whole entry): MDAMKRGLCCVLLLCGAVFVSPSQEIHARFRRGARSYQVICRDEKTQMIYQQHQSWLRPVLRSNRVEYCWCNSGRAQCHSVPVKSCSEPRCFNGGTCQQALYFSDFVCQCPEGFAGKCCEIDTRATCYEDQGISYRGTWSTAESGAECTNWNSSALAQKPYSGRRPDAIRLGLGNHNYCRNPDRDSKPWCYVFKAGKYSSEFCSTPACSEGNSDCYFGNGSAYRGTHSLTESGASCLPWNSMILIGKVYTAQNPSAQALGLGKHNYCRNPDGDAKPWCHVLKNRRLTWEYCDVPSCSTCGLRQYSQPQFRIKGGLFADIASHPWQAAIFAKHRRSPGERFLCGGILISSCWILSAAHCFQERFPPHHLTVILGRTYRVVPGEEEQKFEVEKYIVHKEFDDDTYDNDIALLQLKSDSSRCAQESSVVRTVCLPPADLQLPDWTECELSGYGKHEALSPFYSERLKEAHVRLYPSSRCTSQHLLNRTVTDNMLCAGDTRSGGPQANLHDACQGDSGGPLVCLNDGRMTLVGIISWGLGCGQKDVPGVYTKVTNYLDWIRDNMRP

Serine protease 1 = biological target: T1, Serine protease 1 (Bos taurus, UniProt P00760); test: Inhibitory activity against bovine trypsin
T1 sequence (P00760 whole entry): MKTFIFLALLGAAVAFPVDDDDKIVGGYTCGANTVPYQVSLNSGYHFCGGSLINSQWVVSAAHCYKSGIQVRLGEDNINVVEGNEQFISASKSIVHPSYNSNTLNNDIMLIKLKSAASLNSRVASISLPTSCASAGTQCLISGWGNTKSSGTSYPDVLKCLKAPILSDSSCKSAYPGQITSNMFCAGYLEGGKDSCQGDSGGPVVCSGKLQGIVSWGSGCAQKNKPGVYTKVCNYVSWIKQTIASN

[2] = Area under was determined at a dose of 30 mg/kg; type: ADME, organism-based; design: dose 30 mg/kg; settings: in vivo
[3] = Cmax at a dose of […] mg/kg in rat; type: ADME, organism-based; settings: in vivo, 30 mg/kg
[4] = Tmax at a dose of 30 mg/kg in rat; type: ADME, organism-based; design: dose 30 mg/kg; settings: in vivo

Sequence of Plasminogen (P00747 97-580 limits assumed): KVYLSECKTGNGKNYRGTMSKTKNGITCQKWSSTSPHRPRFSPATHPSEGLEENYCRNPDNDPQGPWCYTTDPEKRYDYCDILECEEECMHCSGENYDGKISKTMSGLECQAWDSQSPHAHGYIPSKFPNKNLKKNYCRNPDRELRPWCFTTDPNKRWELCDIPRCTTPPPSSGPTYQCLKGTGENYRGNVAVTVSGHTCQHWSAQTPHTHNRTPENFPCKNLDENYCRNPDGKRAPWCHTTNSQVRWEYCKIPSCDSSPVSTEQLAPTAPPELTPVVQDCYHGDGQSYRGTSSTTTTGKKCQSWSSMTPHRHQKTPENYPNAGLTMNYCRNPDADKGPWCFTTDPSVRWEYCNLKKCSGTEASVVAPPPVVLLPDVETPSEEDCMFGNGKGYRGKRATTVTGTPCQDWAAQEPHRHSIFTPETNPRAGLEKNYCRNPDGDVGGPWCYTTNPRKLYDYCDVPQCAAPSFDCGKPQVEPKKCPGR
Sequence of Plasminogen (P00747 581-810 limits assumed): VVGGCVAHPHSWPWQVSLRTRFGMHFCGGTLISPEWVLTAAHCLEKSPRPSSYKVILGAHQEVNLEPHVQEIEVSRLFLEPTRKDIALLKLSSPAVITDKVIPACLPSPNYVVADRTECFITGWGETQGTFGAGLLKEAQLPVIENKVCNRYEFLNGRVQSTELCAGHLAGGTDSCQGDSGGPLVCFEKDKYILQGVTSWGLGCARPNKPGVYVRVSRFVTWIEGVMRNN

Structure (SMILES): CN(C(=O)[C@H](CC#Cc1ccc(N)c(N)c1)NS(=O)(=O)c1ccc2ccccc2c1)C1CCCC1
Ki (Prothrombin): 0.22 µM

Structure (SMILES): CN(C(=O)[C@H](CC#Cc1cnc(N)s1)NS(=O)(=O)c1ccc2ccccc2c1)C1CCCC1
Ki (Prothrombin): 4.5 µM

Structure (SMILES): CN(C(=O)[C@H](CC#Cc1ccc(CN)cc1)NS(=O)(=O)c1ccc2ccccc2c1)C1CCCC1
Ki (Prothrombin): 3.4 µM

Structure (SMILES): CNc1ccc(C#CC[C@H](NS(=O)(=O)c2ccc3ccccc3c2)C(=O)N(C)C2CCCC2)cc1
Ki (Prothrombin): 0.019 µM | Ki (Plasminogen): > 200 µM | Ki (Coagulation factor X): 8.7 µM | Ki [1]: > 200 µM | Ki (Serine protease 1): 37 µM

Structure (SMILES): CCCc1ccc(S(=O)(=O)N[C@@H](CC#Cc2ccc(NC)cc2)C(=O)N(C)C2CCCC2)cc1
Ki (Prothrombin): 0.008 µM | Ki (Plasminogen): > 200 µM | Ki (Coagulation factor X): 6.6 µM | Ki [1]: 190 µM | Ki (Serine protease 1): > 30 µM

Structure (SMILES): CCNc1ccc(C#CC[C@H](NS(=O)(=O)c2ccc3ccccc3c2)C(=O)N(C)C2CCCC2)cc1
Ki (Prothrombin): 49 µM

Structure (SMILES): CN(C(=O)[C@H](CC#Cc1cnc[nH]1)NS(=O)(=O)c1ccc2ccccc2c1)C1CCCC1
Ki (Prothrombin): 3 µM

Structure (SMILES): CN(C(=O)[C@H](CC#Cc1cccc(N)c1)NS(=O)(=O)c1ccc2ccccc2c1)C1CCCC1
Ki (Prothrombin): 2.2 µM

Structure (SMILES): CNc1ccc(C#CC[C@H](NS(=O)(=O)c2ccc3c(c2)CCCC3)C(=O)N(C)C2CCCC2)cc1
AUC [2]: 4.6 µM·h | Ki (Prothrombin): 0.005 µM | Ki (Plasminogen): > 200 µM | Cmax [3]: 1800 nM | Tmax [4]: 45 min | Ki (Coagulation factor X): 1.9 µM | Ki [1]: 200 µM | Ki (Serine protease 1): > 30 µM

Structure (SMILES): CNc1ccc(C#CC[C@H](NS(=O)(=O)c2ccc3cc(OC)ccc3c2)C(=O)N(C)C2CCCC2)cc1
Ki (Prothrombin): 0.027 µM | Ki (Plasminogen): > 200 µM | Ki (Coagulation factor X): 14 µM | Ki [1]: > 200 µM | Ki (Serine protease 1): > 30 µM

Further lines, results first:

Ki (Prothrombin): 3.5 µM
Structure (SMILES): CNc1ncc(C#CC[C@H](NS(=O)(=O)c2ccc3ccccc3c2)C(=O)N(C)C2CCCC2)cn1

Ki (Prothrombin): > 20 µM
Structure (SMILES): CN(C(=O)[C@H](CC#Cc1ccncc1)NS(=O)(=O)c1ccc2ccccc2c1)C1CCCC1

Ki (Prothrombin): 2.5 µM
Structure (SMILES): CN(C(=O)[C@H](CC#Cc1cccnc1)NS(=O)(=O)c1ccc2ccccc2c1)C1CCCC1

Ki (Prothrombin): 0.04 µM | Ki (Serine protease 1): 32 µM
Structure (SMILES): CNc1ccc(C#CC[C@H](NS(=O)(=O)c2ccc3ccccc3c2)C(=O)N(C)C2CCCC2)cc1N

Ki (Prothrombin): 1.5 µM
Structure (SMILES): CN(C(=O)[C@H](CC#Cc1ccc(N)nc1)NS(=O)(=O)c1ccc2ccccc2c1)C1CCCC1

Ki (Prothrombin): 1.5 µM
Structure (SMILES): CN(C(=O)[C@H](CC#Cc1ccc(NN)cc1)NS(=O)(=O)c1ccc2ccccc2c1)C1CCCC1

Ki (Prothrombin): > 20 µM
Structure (SMILES): CN(C(=O)[C@H](CC#Cc1cnc(N)nc1)NS(=O)(=O)c1ccc2ccccc2c1)C1CCCC1

Ki (Prothrombin): 0.3 µM
Structure (SMILES): CNc1ccc(C#CC[C@H](NS(=O)(=O)c2ccc3ccccc3c2)C(=O)N(C)C2CCCC2)cn1

Ki (Prothrombin): 0.29 µM
Structure (SMILES): CN(C(=O)[C@H](CC#Cc1ccc(N)cc1)NS(=O)(=O)c1ccc2ccccc2c1)C1CCCC1
